The first assay has as its target Sphingosine 1-phosphate receptor 1 (Homo sapiens, UniProt P21453). Briefly: direct activation of human S1P1 – cell-based, agonist mode, 60K MLSMR set, dose response (AID 468).
Conditions: not given
Sphingosine 1-phosphate receptor 1, sequence (P21453 whole entry): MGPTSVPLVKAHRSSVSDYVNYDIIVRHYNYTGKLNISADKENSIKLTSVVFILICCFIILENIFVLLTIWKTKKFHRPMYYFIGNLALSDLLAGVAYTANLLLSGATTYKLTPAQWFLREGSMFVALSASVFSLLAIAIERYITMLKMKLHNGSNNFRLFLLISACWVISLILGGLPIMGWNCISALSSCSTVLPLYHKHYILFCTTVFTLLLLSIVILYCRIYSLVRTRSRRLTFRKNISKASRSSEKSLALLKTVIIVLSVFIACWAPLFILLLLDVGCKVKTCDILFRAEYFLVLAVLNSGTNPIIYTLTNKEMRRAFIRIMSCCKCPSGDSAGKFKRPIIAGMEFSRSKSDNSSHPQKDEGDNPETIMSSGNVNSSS
On to `Cc1[nH]nc2c1C1(C(=O)N(Cc3ccc(Cl)cc3)c3ccccc31)C(C#N)C(=N)O2` (stereo not drawn) [6-amino-1'-[(4-chlorophenyl)methyl]-3-methyl-2'-oxo-5-spiro[2H-pyrano[2,3-c]pyrazole-4,3'-indole]carbonitrile], for which a half-maximal effect (EC50) was put at 58 µM. Same read-out and setting: the value for `CCc1cc2c(N3CCN(c4ccccc4)CC3)ncnc2s1` [6-ethyl-4-(4-phenyl-1-piperazinyl)thieno[2,3-d]pyrimidine] was 6.61 µM; that for `c1csc(CCNc2ncnc3sc4c(c23)CCC4)c1` [7,8-dihydro-6H-cyclopenta[4,5]thieno[1,2-c]pyrimidin-1-yl-[2-(2-thienyl)ethyl]amine] was 1.24 µM. As for `OCC12C=CC(O1)c1c2c(O)n(-c2ccccc2-c2ccccc2)c1O` (stereo not drawn) [7-(hydroxymethyl)-2-(2-phenylphenyl)-4,7a-dihydro-3aH-octahydro-1H-4,7-epoxyisoindole-1,3-dione], the half-maximal effective concentration (EC50) (as a rule, the concentration at which the effect is half-maximal) was 5.47 µM.

With `CCOC(=O)c1cccc2c1-c1ccccc1C2N=O` (stereo not drawn) [9-hydroximinofluorene-4-carboxylic acid ethyl ester], a half-maximal response (EC50) required 13 µM. In turn, `Cc1nnc(SC(=O)N2c3ccccc3Sc3ccccc32)s1` [10-phenothiazinecarbothioic acid S-(5-methyl-1,3,4-thiadiazol-2-yl) ester] had an EC50 of 3.57 µM. `CCCCn1ccnc1C(=O)c1cccc(S(=O)(=O)N2c3ccccc3CC2C)c1` (stereo not drawn) [(1-butyl-2-imidazolyl)-[3-[(2-methyl-2,3-dihydroindol-1-yl)sulfonyl]phenyl]methanone] returned a half-maximal effective concentration (EC50) of 9.34 µM. `Cc1nc(NC(C)c2ccccc2)c2oc3ccccc3c2n1` (stereo not drawn) [(2-methylbenzofuro[3,2-d]pyrimidin-4-yl)-(1-phenylethyl)amine] registered a concentration giving a half-maximal response (EC50) of 6.97 µM. The compound `C=CCN1/C(=N/c2cccnc2)SCC1(O)c1ccc(C)cc1` (stereo not drawn) [(2E)-3-allyl-4-(4-methylphenyl)-2-(pyridin-3-ylimino)-1,3-thiazolidin-4-ol] returned a half-maximal effective concentration (EC50) of 6.13 µM. Consider `Cn1c(C(=O)N2CCCc3ccccc32)cc2sccc21` [(3,4-Dihydro-2H-quinolin-1-yl)-(4-methyl-4H-thieno[3,2-b]pyrrol-5-yl)-methanone], for which the response was half-maximal at 1.78 µM (EC50). `OC(c1cccc(OCc2ccccc2)c1)c1nnc(-c2ccccc2)o1` (stereo not drawn) [(3-benzoxyphenyl)-(5-phenyl-1,3,4-oxadiazol-2-yl)methanol] came in with a 50% effective concentration (EC50) of 2.08 µM. Same read-out and setting: the value for `Nc1ccc(N2CCOCC2)c(Cl)c1` [(3-chloro-4-morpholino-phenyl)amine] was 1.18 µM; that for `O=C(Oc1cccc(C(=O)N2CCOCC2)c1)c1ccc(Br)cc1` [(3-morpholin-4-ylcarbonylphenyl) 4-bromanylbenzoate] was over 95 µM. Same read-out and setting: to `O=C(CSc1nnc(-c2cc3ccccc3cc2O)n1Cc1ccco1)c1ccc(F)cc1` [(3Z)-3-[3-[2-(4-fluorophenyl)-2-oxidanylidene-ethyl]sulfanyl-4-(furan-2-ylmethyl)-1H-1,2,4-triazol-5-ylidene]naphthalen-2-one] belongs 19.8 µM.

Consider `Cc1cc(C(=O)N2CCN(C(c3ccccc3)c3ccccc3)CC2)on1` [(4-benzhydrylpiperazin-1-yl)-(3-methyl-1,2-oxazol-5-yl)methanone], for which the response was half-maximal at 5.8 µM (EC50).

In turn, `CC(C)c1cc(C(=O)N2CCN(C(c3ccccc3)c3ccccc3)CC2)no1` [(4-benzhydrylpiperazin-1-yl)-(5-propan-2-yl-1,2-oxazol-3-yl)methanone] showed a concentration for a half-maximal effect (EC50) of over 10 µM. Turning to `CCCc1cc(C(=O)N2CCN(C(c3ccccc3)c3ccccc3)CC2)no1` [(4-benzhydrylpiperazin-1-yl)-(5-propyl-1,2-oxazol-3-yl)methanone], the EC50 worked out at 8.01 µM. `O=C(c1cc(-c2ccco2)on1)N1CCN(C(c2ccccc2)c2ccccc2)CC1` [(4-benzhydrylpiperazin-1-yl)-[5-(furan-2-yl)-1,2-oxazol-3-yl]methanone] came in with an EC50 of 6.75 µM. Same read-out and setting: the value for `COc1cccc2sc(Nc3nc(-c4ccccn4)cs3)nc12` [(4-methoxy-1,3-benzothiazol-2-yl)-[4-(2-pyridyl)thiazol-2-yl]amine] was 2.75 µM.

With `O=C(C1CCCN1S(=O)(=O)c1cccc2cccnc12)N1CCN(c2ccccc2)CC1` (stereo not drawn) [(4-phenyl-1-piperazinyl)-[1-(8-quinolinylsulfonyl)-2-pyrrolidinyl]methanone], the concentration giving a half-maximal response (EC50) was over 95 µM. Consider `CCCc1ccc(Oc2c[nH]nc2-c2ccc(O)cc2O)cc1` [(4E)-3-hydroxy-4-[4-(4-propylphenoxy)-1,2-dihydropyrazol-3-ylidene]-1-cyclohexa-2,5-dienone], for which the concentration giving a half-maximal response (EC50) stood at 15.5 µM. The same measure, in the same setting: the value for `COc1ccc(C(=O)C2C(=O)C(=O)N(CC3CCCO3)C2c2cccc(OC)c2)cc1` (stereo not drawn) [(4Z)-4-[hydroxy-(4-methoxyphenyl)methylene]-5-(3-methoxyphenyl)-1-(tetrahydrofurfuryl)pyrrolidine-2,3-quinone] was over 95.1 µM; that for `COc1ccc(CCNc2c(C)c(C)nc3ncnn23)cc1` [(5,6-Dimethyl-[1,2,4]triazolo[1,5-a]pyrimidin-7-yl)-[2-(4-methoxy-phenyl)-ethyl]-amine] was 3.12 µM; that for `CS(=O)(=O)n1nc(OC(=O)c2cccc3ccccc23)cc1N` [(5-amino-1-methylsulfonylpyrazol-3-yl) naphthalene-1-carboxylate] was 9.29 µM. Same read-out and setting: the value for `Cc1nn(C(=O)c2cccs2)c(N)c1-c1ccccc1` [(5-amino-3-methyl-4-phenyl-1-pyrazolyl)-thiophen-2-ylmethanone] was 7.24 µM. The same measure, in the same setting: to `Cc1ccc(C(=O)c2cncc(Br)c2)cc1` [(5-bromanylpyridin-3-yl)-(4-methylphenyl)methanone] belongs 9.76 µM.

Take `O=C(c1cc(-c2ccccc2)on1)N1CCN(Cc2ccc3c(c2)OCO3)CC1` [(5-phenylisoxazol-3-yl)-(4-piperonylpiperazino)methanone]: the EC50 was over 30 µM.

In turn, `CCC(NCc1ccc2c(c1)OCO2)=C1C(=O)NC(=O)N(C2CCCCC2)C1=O` [(5E)-5-[1-(1,3-benzodioxol-5-ylmethylamino)propylidene]-1-cyclohexyl-1,3-diazinane-2,4,6-trione] had an EC50 of 6.81 µM. As to `CCc1c(C)nc2ncnn2c1NCCc1ccc(OC)cc1` [(6-Ethyl-5-methyl-[1,2,4]triazolo[1,5-a]pyrimidin-7-yl)-[2-(4-methoxy-phenyl)-ethyl]-amine], the EC50 worked out at 8.3 µM. The same measure, in the same setting: the value for `Brc1ccc2ncnc(Nc3ccc(N4CCOCC4)cc3)c2c1` [(6-bromoquinazolin-4-yl)-(4-morpholinophenyl)amine] was 7.6 µM; that for `CCc1ccc2oc(-c3cc(N)cc(C)c3O)nc2c1` [(6E)-4-amino-6-(5-ethyl-3H-1,3-benzoxazol-2-ylidene)-2-methyl-1-cyclohexa-2,4-dienone] was 11.4 µM; that for `CC(C)c1ccc2oc(-c3cc(N)ccc3O)nc2c1` [(6E)-4-amino-6-(5-isopropyl-3H-1,3-benzoxazol-2-ylidene)cyclohexa-2,4-dien-1-one] was 9.37 µM.

Still in this assay, the particulars now being: inactive by the depositor's call.
The compound `O=c1oc2cc(Br)ccc2n1CSC1=NCCS1` [6-Bromo-3-(4,5-dihydro-thiazol-2-ylsulfanylmethyl)-3H-benzooxazol-2-one] showed an EC50 of 12.9 µM.

As for `CC(C)Cn1c(N)c(C(=O)CSc2ccc3c(c2)OCCO3)c(=O)n(C)c1=O` [6-amino-5-[2-(2,3-dihydro-1,4-benzodioxin-6-ylsulfanyl)acetyl]-3-methyl-1-(2-methylpropyl)pyrimidine-2,4-dione], the EC50 amounted to 24 µM.

Take `COc1cccc(-c2nnc3sc(C4CCCCC4)nn23)c1` [6-cyclohexyl-3-(3-methoxyphenyl)-[1,2,4]triazolo[3,4-b][1,3,4]thiadiazole]: the EC50 came to 17.4 µM. With `COc1ccc2ncn(-c3ccccc3)c2c1` [6-methoxy-1-phenyl-1H-1,3-benzodiazole], the midpoint of the response, the EC50, lay at 16.1 µM.

The compound `Cc1cc(N2CCN(C(c3ccccc3)c3ccccc3)CC2)n2ncnc2n1` [7-(4-benzhydrylpiperazin-1-yl)-5-methyl-[1,2,4]triazolo[1,5-a]pyrimidine] returned a half-maximal effective concentration (EC50) of 14.5 µM. `CCNc1nc2c(c(=O)n(C)c(=O)n2C)n1Cc1ccc(Cl)cc1` [7-(4-chlorobenzyl)-8-(ethylamino)-1,3-dimethyl-xanthine] yielded an EC50 of 12.9 µM. Regarding `CCCc1cc2c(=O)c(-c3ccccn3)coc2cc1OC` [7-methoxy-6-propyl-3-(2-pyridinyl)-1-benzopyran-4-one], a half-maximal effect (EC50) was put at 51.8 µM.

In turn, `CCCn1c(CN2CCN(c3cccc(Cl)c3)CC2)nc2c1c(=O)n(C)c(=O)n2C` [8-[[4-(3-chlorophenyl)-1-piperazinyl]methyl]-1,3-dimethyl-7-propylpurine-2,6-dione] registered an EC50 of 20.3 µM. On the same count and under the same terms, to `CC1=CC(C)(C)Nc2ccc(OC(=O)c3cccnc3)cc21` [(2,2,4-trimethyl-1H-quinolin-6-yl) pyridine-3-carboxylate] belongs 11.4 µM.

With `CC1CC(C)(C)Nc2ccc(OC(=O)c3ccco3)cc21` (stereo not drawn) [(2,2,4-trimethyl-3,4-dihydro-1H-quinolin-6-yl) furan-2-carboxylate], it took 13.6 µM to reach a half-maximal effect (EC50). The compound `COc1ccc(CNc2cc(C)nc3ncnn23)c(OC)c1` [(2,4-Dimethoxy-benzyl)-(5-methyl-[1,2,4]triazolo[1,5-a]pyrimidin-7-yl)-amine] showed an EC50 of 16.3 µM. `CCOc1ccccc1COC(=O)c1cccc(-n2cnnn2)c1` [(2-ethoxyphenyl)methyl 3-(1,2,3,4-tetrazol-1-yl)benzoate]: the concentration for a half-maximal effect (EC50) turned out to be 22.9 µM.

With `Cc1cc(C(=O)N2CCN(C(c3ccccc3)c3ccccc3)CC2)no1` [(4-benzhydrylpiperazin-1-yl)-(5-methyl-1,2-oxazol-3-yl)methanone], the EC50 stood at 25.5 µM. As to `CCCn1c(CNc2ccc(Br)cc2)nc2ccccc21` [(4-bromophenyl)-[(1-propylbenzimidazol-2-yl)methyl]amine], the concentration for a half-maximal effect (EC50) came out at 12.1 µM. In turn, `CCN(CC)C(=O)Oc1ccc2c(=O)c(-c3ccccc3)coc2c1` [(4-oxidanylidene-3-phenyl-chromen-7-yl) N,N-diethylcarbamate] returned a concentration giving a half-maximal response (EC50) of 37.2 µM. In the case of `Cn1cccc1C(=O)OCc1cc(Cl)cc2c1OCOC2` [(6-chloranyl-4H-1,3-benzodioxin-8-yl)methyl 1-methylpyrrole-2-carboxylate], a half-maximal effect (EC50) was put at 15.6 µM.

These data come from BindingDB's records for doi:10.7270/Q2251GJ9 (The Scripps Research Institute Molecular Screening Center, 2007).
